Results taken from patent US8173863B2, “Sucrose biosensors and methods of using the same” (Carnegie Institution of Washington, priority 2005, dated 2012).

How the values were obtained:
[1] = target: Agrobacterium tumefaciens ThuE (AtThuE) sucrose binding protein carrying N192D (SEQ ID NO: 2) fused between ECFP and EYFP, sensor FLIPsuc4μ (FLIPsuc), wt (indic (Agrobacterium fabrum, UniProt A9CF11, N212D)); experiment: in vitro FRET titration of purified sensor FLIPsuc4μ; settings: for binding (extent relative to sucrose): 5× Kd (20 μM), FRET micro plate assay (FIG. 4); for affinity relative to that for sucrose: FIG. 1C titration curves; for Δratio (maximum ratio change): in vitro, no binding to saturated binding; for recognition (binding): even after addition of higher sugar concentrations (50× Kd)
From the text: (§1) Because the maltose/trehalose/sucrose binding protein from Agrobacterium tumefaciens (AtThuE) is 78.9% identical over predicted mature region of the SmThuE protein (SEQ ID NO: 2) and is 21.4% homologous to the maltose binding protein from E. coli (malE), we attempted to clone the AtThuE binding protein. To isolate the gene, a PCR product from genomic Agrobacterium tumefaciens (strain C58C1) DNA encoding mature AtThuE without signal sequence and stop codon was cloned into the KpnI site between ECFP and EYFP genes (FIG. 1A). The chimeric gene was inserted into pRSET (Invitrogen) and transferred to E. coli BL21(DE3)Gold (Stratagene). […] It is unknown whether this difference corresponds to a mutation or natural variation. Since N192D was outside the binding pocket and since AtThuE carrying the mutation was functional as a sugar sensor (see Table 1), all further experiments were carried out with the nanosensor named FLIPsuc4μ carrying the mutation N192D. FLIPsuc proteins were extracted from BL21(DE3)gold and purified as described (Fehr et al. 2002).
(§2) A DNA fragment encoding the mature Agrobacterium tumefaciens maltose/trehalose/sucrose BP protein was fused between the ECFP and EYFP sequences as described above. The chimeric gene was expressed in E. coli and the protein product purified and assayed for substrate specificity.
(§3) Substrate titration curves and substrate specificity analysis were performed on Safire (Tecan) fluorometer. ECFP was excited at 433 nm and emission was set to 485 nm and 528 nm for ECFP and EYFP, respectively (bandwidth 12 nm). All in vitro analyses were performed in 20 mM MOPS buffer at pH 7. FRET was determined as EYFP-ECFP emission intensity ratio. Using the change in ratio upon ligand binding, binding constants (Kd) were determined by fitting substrate titration curves to equation 1: S=1−(r−rmin)(rmax−rmin)=[S]b/[P]t=n[S]/(Kd+[S]), where [S] is substrate concentration; [S]b, concentration of bound substrate; n, number of binding sites; [P]t, total concentration of binding protein; r, ratio; rmin, minimum ratio in absence of ligand; rmax, maximum ratio at saturation. Hill coefficients were determined using Hill equation 2: S=(n[S]^n)/(Kd+[S]^n).
(§4) SmThuE is mainly functioning as a trehalose and maltose binding protein. Sucrose is thought to be transported to a lesser extent. FLIPsuc4μ was therefore incubated with trehalose, maltose and other related sugars to test for its binding capacities. Substrate-induced conformational changes were measured using FRET in micro plate assays. […] Maltose and glucose were chosen for further analysis of FLIPsuc4μ and its mutants since they are important sugars in plants and might therefore interfere with sucrose measurements in vivo. […] Most mutants show similar patterns with higher affinity for maltose than sucrose. FLIPsuc-10μ is the most significant example with an 83 times higher affinity for maltose than sucrose (Table 1). The D115 mutants both show the highest affinity for maltose compared to sucrose and […], but to a different extent.

[2] = system: Alicyclobacillus acidocaldarius maltose uptake; settings: cited from earlier work
[3] = target: Agrobacterium tumefaciens ThuE (AtThuE) sucrose binding protein carrying N192D (SEQ ID NO: 2) fused between ECFP and EYFP, sensor FLIPsuc4μ (FLIPsuc), wt (indicator SEQ ID NO: 4) (Agrobacterium fabrum, UniProt A9CF11, N212D); experiment: in vitro FRET titration of purified sensor FLIPsuc4μ
From the text: as §1, §2, §3, §4

[4] = target: Alicyclobacillus acidocaldarius maltose binding protein (AaMalE); settings: cited from earlier work
[5] = target: Agrobacterium tumefaciens AtThuE sensor FLIPsuc4μ variant D115E (FLIPsuc3m, FLIPsucD115E) (Agrobacterium fabrum, UniProt A9CF11, D135E/N212D); experiment: in vitro FRET titration of affinity mutant FLIPsuc3m; assay type: binding; settings: for Δratio (delta ratio): no binding to saturated binding
Procedure: as §3
(§5) To expand the dynamic range of the sucrose sensor, site directed mutagenesis was used as described above to lower the binding affinity of the sucrose binding domain. Affinity mutants of FLIPsuc4μ were generated. Alignment together with modeling of AtThuE with maltose binding proteins that have been crystallized helped predict residues important for ligand binding. […] Mutant forms carrying substitutions F113A, D115A, D115E, D115N, W244A, Y246A and W283A were generated using Kunkel mutagenesis (Kunkel et al. 1991) in the mutant background of FLIPsuc41t. The affinity mutants were designated as FLIPsucF113A, FLIPsucW283A, FLIPsucD115A, FLIPsucD115E, FLIPsucY246A, and FLIPsucW244A. All six mutants have lower affinities for sucrose than that of FLIPsuc4μ, with a Kd value varying from 10 μM to the higher mM range (Table 1). The starting ratio between EYFP and ECFP ranges from 1.4 to close to 2.0, which is also similar to what has been seen in other sugar sensors (FLIPmal, FLIPglu and FLIPrib). Introducing substitution F113A into the ThuE moiety of FLIPsuc4μ produced FLIPsuc10μ, which has a binding constant (Kd) of 10 μM for sucrose, thus providing a range for sucrose quantification between at least 1 μM and 90 μM (Table 1).

[6] = target: Agrobacterium tumefaciens AtThuE sensor FLIPsuc4μ variant W244A (FLIPsuc46m, FLIPsucW244A) (Agrobacterium fabrum, UniProt A9CF11, N212D/W264A); experiment: in vitro FRET titration of affinity mutant FLIPsuc46m; assay type: binding
Procedure: as §3, §5

[7] = target: Agrobacterium tumefaciens AtThuE sensor FLIPsuc4μ variant Y246A (FLIPsuc15m, FLIPsucY246A) (Agrobacterium fabrum, UniProt A9CF11, N212D/Y266A); experiment: in vitro FRET titration of affinity mutant FLIPsuc15m; assay type: binding; settings: for Δratio: in vitro, no binding to saturated binding
Procedure: as §3, §5

[8] = target: Agrobacterium tumefaciens AtThuE sensor FLIPsuc4μ variant W283A (FLIPsuc88μ, FLIPsucW283A) (Agrobacterium fabrum, UniProt A9CF11, N212D/W303A); experiment: in vitro FRET titration of affinity mutant FLIPsuc88μ; assay type: binding; settings: in vitro; for Δratio: no binding to saturated binding
Procedure: as §3, §5

[9] = target: Agrobacterium tumefaciens AtThuE sensor FLIPsuc4μ variant F113A (FLIPsuc10μ, FLIPsucF113A) (Agrobacterium fabrum, UniProt A9CF11, F133A/N212D); experiment: in vitro FRET titration of affinity mutant FLIPsuc10μ; assay type: binding; settings: for Δratio (change in ratio): in vitro, no binding to saturated binding
Procedure: as §3, §5

[10] = target: Agrobacterium tumefaciens AtThuE sensor FLIPsuc4μ variant D115A (FLIPsuc1m, FLIPsucD115A) (Agrobacterium fabrum, UniProt A9CF11, D135A/N212D); experiment: in vitro FRET titration of affinity mutant FLIPsuc1m; assay type: binding; settings: for Δratio (delta ratio): no binding to saturated binding
Procedure: as §3, §5

[11] = 20 mM MOPS pH 7, FRET titration

With OC[C@H]1O[C@H](O[C@H]2O[C@H](CO)[C@@H](O)[C@H](O)[C@H]2O)[C@H](O)[C@@H](O)[C@@H]1O [trehalose] the “binding (extent relative to sucrose)” value [1] was “to the same extent or better than sucrose”.

In the case of OC[C@H]1O[C@H](O[C@H]2[C@H](O)[C@@H](O)[C@@H](O[C@H]3[C@H](O)[C@@H](O)[C@@H](O[C@H]4[C@H](O)[C@@H](O)C(O)O[C@@H]4CO)O[C@@H]3CO)O[C@@H]2CO)[C@H](O)[C@@H](O)[C@@H]1O (stereo partly drawn) [maltotetraose], the “inhibition of uptake of radiolabeled maltose” value [2] is listed as “inhibited”.

With OC[C@H]1O[C@H](O[C@H]2[C@H](O)[C@@H](O)C(O)O[C@@H]2CO)[C@H](O)[C@@H](O)[C@@H]1O (stereo partly drawn) [maltose] the “binding (extent relative to sucrose)” value [1] was “to the same extent or better than sucrose”, the “affinity relative to that for sucrose” value [1] was “higher” and the “Δratio (maximum ratio change)” value [1] was 0.21. The Kd [3] was 0.23 µM, the Kd [4] was 1.5 µM and the Kd [5, 11] was 1530 µM. The Kd ([5]; FRET titration) was 1500 µM, the “Δratio (delta ratio)” value [5] was 0.39 and the Kd [6] was 26500 µM. For the same compound, the Δratio ([6]; in vitro, no binding to saturated binding) was 0.42, the Kd [7] was 56 µM and the Δratio [7] was 0.14. It also gave a Kd [8, 11] of 265 µM, a Δratio [8] of 0.25 and a Kd [9] of 0.12 µM. The “Δratio (change in ratio)” value [9] was 0.12, the Kd [10, 11] was 51 µM and the “Δratio (delta ratio)” value [10] was 0.37.

For OC[C@H]1OC(O)[C@H](O)[C@@H](O)[C@H]1O (stereo partly drawn) [galactose], the “recognition (binding)” value [1] was “not recognized”.

In the case of OC[C@H]1OC(O)[C@H](O)[C@@H](O)[C@@H]1O (stereo partly drawn) [glucose], the “binding (extent relative to sucrose)” value [1] is reported as “to lesser extent”, the “affinity relative to that for sucrose” value [1] is reported as “in the same range as that for sucrose” and the “Δratio (maximum ratio change)” value [1] is reported as 0.18. For the same compound, the Kd [3] was 27 µM, the Kd [5, 11] was 9110 µM and the Kd ([5]; FRET titration) was 9100 µM. For the same compound, the “Δratio (delta ratio)” value [5] was 0.44, the Kd [7] was 554 µM and the Δratio [7] was 0.07. The Kd [8, 11] was 7210 µM, the Kd ([8]; FRET titration) was 7200 µM and the Δratio [8] was 0.21. For the same compound, the Kd [9] was 106 µM, the “Δratio (change in ratio)” value [9] was 0.12 and the Kd [10, 11] was 16200 µM. For the same compound, the Kd ([10]; FRET titration) was 16000 µM and the “Δratio (delta ratio)” value [10] was 0.50.

For OCC1(O)OC[C@@H](O)[C@@H](O)[C@@H]1O (stereo partly drawn) [Fructose], the “recognition (binding)” value [1] was “not recognized”.
